Measured values published in US20250025488A1, “NUCLEIC ACIDS FOR INHIBITING EXPRESSION OF TMPRSS6 AND IRON CHELATORS” (SILENCE THERAPEUTICS GMBH, priority 2018, published 2025).

System: HFE−/− mice
Experiment: Liver iron concentrations, TMPRSS6 siRNA with or without Deferiprone, HFE−/− mice
Type: in vivo, mouse
Conditions: 3 mg/kg siRNA conjugate s.c. Day 1 or Day 1 and 22, Deferiprone 0.5 mg/ml in drinking water, Day 43
Procedure: Three months old C57BL6/J congenic female HFE knock-out mice (−/−) and three months old female C57BL6/J wild type mice (+/+) were used in this study (Herrmann et al., Mol. Med, 2004. 82 (1): p1-3). HFE−/− mice (n=8) were treated on Day 1 (1×) or on Day 1 and on Day 22 (2×) subcutaneously with either PBS (PBS) or 3 mg/kg TMPRSS6 siRNA conjugate (TMP) or 3 mg/kg non-targeting siRNA conjugate (Luc). In addition, cohort 7 to 10 received Deferiprone supplied in drinking water at a concentration of 0.5 mg/ml. Cohorts 1 and 2 were terminated on Day 1 (Predose) all other cohorts on Day 43 (6 weeks after start of the treatment) to collect serum and tissue samples for analyses. Treatment with TMPRSS6 siRNAs enhances the reduction of tissue iron levels by iron chelator. 3 months old HFE−/− (rodent model for hereditary hemochromatosis and iron overload) or wild type mice were used for this study and treated as described in Example 46. Liver tissue samples were collected to assess liver iron concentrations before start of the treatment (predose) and at the end of the study at Day 43 (6 weeks after start of treatments). Liver tissue samples were dried and iron concentrations from dry weights were determined by acid extraction method. At the start of the study liver iron levels were already elevated in HFE−/− compared to wild type control mice (Predose). […]

With `Cc1c(O)c(=O)ccn1C` [Deferiprone] the Liver iron content was “little to no effect on the liver iron content”.
